Among the data in patent US11291655B2, “RAD51 inhibitors” (Cyteir Therapeutics, Inc., priority 2017, dated 2022) are EC50 values, retold here.

The assay has as its system Daudi Cell Culture. Briefly: Compound primary screening in Daudi cell culture. Conditions: Homo sapiens, 168 h; Daudi cells, 1250 cells per well, reads on Day 7. The assay is classed as cell-based. The essentials: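 Daudi cells seeded at 1250 cells per well in 130 ul medium at 37° C. and treated with serially diluted compounds added from a media master plate; read on Day 7.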
`CC(C)OC(=O)Nc1ccc(-c2ncc(-c3ccc(N4CC(c5ccccc5)OC4=O)cc3S(=O)(=O)NC(C)(C)C)s2)cc1` (centres unmarked) [Compound J29, isopropyl N-[4-[5-[2-(tert-butylsulfamoyl)-4-(2-oxo-5-phenyl-oxazolidin-3-yl)-phenyl]thiazol-2-yl]phenyl]carbamate] displayed a concentration for a half-maximal effect (EC50) of over 10 µM.

Consider `CC(C)OC(=O)Nc1ccc(-c2ncc(-c3ccc(C(=O)NCc4ccccc4)cc3S(=O)(=O)NC(C)(C)C)s2)cc1` [Compound K1], for which the EC50 is over 10 µM. Consider `CC(C)OC(=O)Nc1ccc(-c2ncc(-c3cc(NC(=O)OCc4ccccc4)ccc3S(=O)(=O)NC(C)(C)C)s2)cc1` [Compound K2], for which the EC50 is over 10 µM. `CC(C)NC(=S)Nc1ccc(-c2ncc(-c3ccc(NC(=O)OCc4ccccc4)cc3S(=O)(=O)NC(C)(C)C)s2)cc1` [Compound L4] had a 50% effective concentration (EC50) of over 10 µM. The value for `CCOC(=O)Nc1ccc(-c2cnc(-c3ccc(NC(=S)NC(C)C)cc3)s2)c(S(=O)(=O)NC(C)(C)C)c1` [Compound L5] was under 5 µM; that for `CC(C)NC(=S)Nc1ccc(-c2ncc(-c3ccc(NC(=O)c4ccccc4)cc3S(=O)(=O)NC(C)(C)C)s2)cc1` [Compound L6] was under 5 µM. The value for `COC(=O)Nc1ccc(-c2cnc(-c3ccc(NC(=S)NC(C)C)cc3)s2)c(S(=O)(=O)NC(C)(C)C)c1` [Compound L7] was over 10 µM; that for `CC(C)OC(=O)Nc1ccc(-c2ncc(-c3ccc(NC(=S)NCc4ccccc4)cc3S(=O)(=O)NC(C)(C)C)s2)cc1` [Compound L8] was under 1 µM; that for `CC(=O)Nc1ccc(-c2cnc(-c3ccc(NC(=S)NCc4ccccc4)cc3)s2)c(S(=O)(=O)NC(C)(C)C)c1` [Compound L9] was under 5 µM.

Turning to `CC(C)NC(=S)Nc1ccc(-c2ncc(-c3ccc(NC(=O)NCc4ccccc4)cc3S(=O)(=O)NC(C)(C)C)s2)cc1` [Compound L10], the EC50 was under 5 µM. The figure for `CC(C)NC(=S)Nc1ccc(-c2ncc(-c3ccc(NC(=O)N(C)Cc4ccccc4)cc3S(=O)(=O)NC(C)(C)C)s2)cc1` [Compound M1] is over 10 µM.

The compound `CC(C)NC(=S)Nc1ccc(-c2ncc(-c3ccc(NC(=O)NCc4ccncc4)cc3S(=O)(=O)NC(C)(C)C)s2)cc1` [Compound M2] had an EC50 of under 5 µM.

Take `CC(C)NC(=S)Nc1ccc(-c2ncc(-c3ccc(NC(=O)NCc4cccnc4)cc3S(=O)(=O)NC(C)(C)C)s2)cc1` [Compound M3]: the half-maximal effective concentration (EC50) was under 10 µM. The value for `CC(C)NC(=S)Nc1ccc(-c2ncc(-c3ccc(NC(=O)NCc4ccccn4)cc3S(=O)(=O)NC(C)(C)C)s2)cc1` [Compound M4] was under 10 µM. The figure for `CC(C)NC(=S)Nc1ccc(-c2ncc(-c3ccc(NC(=O)NCc4cncnc4)cc3S(=O)(=O)NC(C)(C)C)s2)cc1` [Compound M5] is over 10 µM; for `CC(C)NC(=S)Nc1ccc(-c2ncc(-c3ccc(NC(=O)NCc4nccs4)cc3S(=O)(=O)NC(C)(C)C)s2)cc1` [Compound M6] it is over 10 µM. As to `CC(C)NC(=S)Nc1ccc(-c2ncc(-c3ccc(NC(=O)NC(C)c4ccccc4)cc3S(=O)(=O)NC(C)(C)C)s2)cc1` (centres unmarked) [Compound M7], the 50% effective concentration (EC50) is under 10 µM. The figure for `CC(C)NC(=S)Nc1ccc(-c2ncc(-c3ccc(NC(=O)OC(C)c4ccccc4)cc3S(=O)(=O)NC(C)(C)C)s2)cc1` (centres unmarked) [Compound M8] is under 10 µM; for `CC(C)NC(=S)Nc1ccc(-c2ncc(-c3ccc(NC(=O)NCc4ccc(O)cc4)cc3S(=O)(=O)NC(C)(C)C)s2)cc1` [Compound N1, N-(tert-butyl)-5-(3-(4-hydroxybenzyl)ureido)-2-(2-(4-(3-isopropylthioureido)phenyl)thiazol-5-yl)benzenesulfonamide] it is under 10 µM; for `CC(C)NC(=S)Nc1ccc(-c2ncc(-c3ccc(NC(=O)NCc4cccc(O)c4)cc3S(=O)(=O)NC(C)(C)C)s2)cc1` [Compound N2] it is under 10 µM. The value for `CC(C)NC(=S)Nc1ccc(-c2ncc(-c3ccc(NC(=O)NCc4cn[nH]c4)cc3S(=O)(=O)NC(C)(C)C)s2)cc1` [Compound N4] was over 10 µM. The compound `CC(C)NC(=S)Nc1ccc(-c2ncc(-c3ccc(NC(=O)NCc4ncc[nH]4)cc3S(=O)(=O)NC(C)(C)C)s2)cc1` [Compound N5] returned a half-maximal effective concentration (EC50) of over 10 µM.

The compound `CC(C)NC(=S)Nc1ccc(-c2ncc(-c3ccc(NC(=O)NCc4cnc[nH]4)cc3S(=O)(=O)NC(C)(C)C)s2)cc1` [Compound N6] displayed an EC50 of under 10 µM. The value for `CC(C)OC(=O)Nc1ccc(-c2ncc(-c3ccc(CNC(=O)C4CCNCC4)cc3S(=O)(=O)NC(C)(C)C)s2)cc1` [Compound O1] was under 10 µM; that for `COCCC(=O)NCc1ccc(-c2cnc(-c3ccc(NC(=O)OC(C)C)cc3)s2)c(S(=O)(=O)NC(C)(C)C)c1` [Compound O2] was over 10 µM. The value for `CC(C)OC(=O)Nc1ccc(-c2ncc(-c3ccc(CNC(=O)CCO)cc3S(=O)(=O)NC(C)(C)C)s2)cc1` [Compound O3] was over 10 µM. The compound `CC(C)OC(=O)Nc1ccc(-c2ncc(-c3ccc(CNC(=O)Cc4ccccc4)cc3S(=O)(=O)NC(C)(C)C)s2)cc1` [Compound O4] gave an EC50 of under 10 µM. The value for `CC(C)OC(=O)Nc1ccc(-c2ncc(-c3ccc(CNC(=O)Cc4ccncc4)cc3S(=O)(=O)NC(C)(C)C)s2)cc1` [Compound O5] was under 5 µM; that for `CC(C)OC(=O)Nc1ccc(-c2ncc(-c3ccc(CNC(=O)Cc4cccnc4)cc3S(=O)(=O)NC(C)(C)C)s2)cc1` [Compound O6] was over 10 µM.

`CC(C)OC(=O)Nc1ccc(-c2ncc(-c3ccc(CNC(=O)c4ccncc4)cc3S(=O)(=O)NC(C)(C)C)s2)cc1` [Compound O7]: the EC50 is under 5 µM. The figure for `CC(C)OC(=O)Nc1ccc(-c2ncc(-c3ccc(CNC(=O)c4cncnc4)cc3S(=O)(=O)NC(C)(C)C)s2)cc1` [Compound O8] is under 10 µM; for `CCC(=O)NCc1ccc(-c2cnc(-c3ccc(NC(=O)OC(C)C)cc3)s2)c(S(=O)(=O)NC(C)(C)C)c1` [Compound P1] it is under 10 µM. Compound `CC(C)OC(=O)Nc1ccc(-c2ncc(-c3ccc(CNC(=O)C(C)C)cc3S(=O)(=O)NC(C)(C)C)s2)cc1` [Compound P2] showed an EC50 of under 5 µM. The figure for `CC(C)OC(=O)Nc1ccc(-c2ncc(-c3ccc(CNC(=O)C(C)(C)C)cc3S(=O)(=O)NC(C)(C)C)s2)cc1` [Compound P3] is over 10 µM. The figure for `CC(C)OC(=O)Nc1ccc(-c2ncc(-c3ccc(CNC(=O)c4ccccc4)cc3S(=O)(=O)NC(C)(C)C)s2)cc1` [Compound P4] is over 10 µM. The value for `CC(C)OC(=O)Nc1ccc(-c2ncc(-c3ccc(CNS(C)(=O)=O)cc3S(=O)(=O)NC(C)(C)C)s2)cc1` [Compound P5] was under 10 µM.

`CC(C)OC(=O)Nc1ccc(-c2ncc(-c3ccc(CNS(=O)(=O)c4ccccc4)cc3S(=O)(=O)NC(C)(C)C)s2)cc1` [Compound P6] had an EC50 of under 10 µM.

The compound `COC(=O)NCc1ccc(-c2cnc(-c3ccc(NC(=O)OC(C)C)cc3)s2)c(S(=O)(=O)NC(C)(C)C)c1` [Compound P7] returned a concentration for a half-maximal effect (EC50) of under 10 µM. The value for `CCOC(=O)NCc1ccc(-c2cnc(-c3ccc(NC(=O)OC(C)C)cc3)s2)c(S(=O)(=O)NC(C)(C)C)c1` [Compound P8] was under 10 µM; that for `CC(C)OC(=O)NCc1ccc(-c2cnc(-c3ccc(NC(=O)OC(C)C)cc3)s2)c(S(=O)(=O)NC(C)(C)C)c1` [Compound P9] was over 10 µM; that for `CC(=O)NCc1ccc(-c2cnc(-c3ccc(NC(=O)OC(C)C)cc3)s2)c(S(=O)(=O)NC(C)(C)C)c1` [Compound Q1, isopropyl N-[4-[5-[4-(acetamidomethyl)-2-(tert-butylsulfamoyl)phenyl]thiazol-2-yl]phenyl]carbamate] was under 10 µM. The value for `CC(C)OC(=O)Nc1ccc(-c2ncc(-c3ccc(CNC(=O)OCc4ccccc4)cc3S(=O)(=O)NC(C)(C)C)s2)cc1` [Compound Q2, isopropyl N-[4-[5-[4-(benzyloxycarbonylaminomethyl)-2-(tert-butylsulfamoyl)phenyl]thiazol-2-yl]phenyl]carbamate] was over 10 µM. The figure for `CC(C)NC(=S)Nc1ccc(-c2ncc(-c3ccc(N(C)C(=O)NCc4ccccc4)cc3S(=O)(=O)NC(C)(C)C)s2)cc1` [Compound Q3] is under 1 µM; for `CC(C)NC(=S)Nc1ccc(-c2ncc(-c3ccc(N(C)C(=O)N(C)Cc4ccccc4)cc3S(=O)(=O)NC(C)(C)C)s2)cc1` [Compound Q4] it is under 1 µM; for `Cc1cc(NC(=O)OC(C)C)ccc1-c1ncc(-c2ccc(NC(=O)OC(C)C)cc2S(=O)(=O)NC(C)(C)C)s1` [Compound R1] it is under 1 µM. `COc1cc(-c2ncc(-c3ccc(NC(=O)OC(C)C)cc3S(=O)(=O)NC(C)(C)C)s2)ccc1NC(=O)OC(C)C` [Compound R3] showed a concentration giving a half-maximal response (EC50) of under 5 µM. In turn, `COc1cc(-c2ncc(-c3ccc(NC(=O)OCc4ccccc4)cc3S(=O)(=O)NC(C)(C)C)s2)ccc1NC(=O)OC(C)C` [Compound R7] had a concentration for a half-maximal effect (EC50) of under 1 µM.

In general, EC50 refers to the concentration giving half of the maximal effect.
